These results are taken from patent publication US7427686B2, “(3R, 4R)-trans-3, 4-diarylchroman derivatives and a method for the prevention and/or treatment of estrogen dependent diseases” (Counsel of Scientific and Industrial Research, priority 2003, dated 2008).

One assay concerns adult female rats. Kind of assay: Post-coital antifertility activity. In kind it is in vivo, rat. As to conditions: oral. The protocol: Adult female rats are caged overnight with coeval males of proven fertility and their vaginal smears are checked on the following morning. The day of presence of spermatozoa in the vaginal smear is taken as day 1 of pregnancy. […] Animals of all the groups are autopsied on day 10 post-coitum and number and status of corpora lutea and implantation sites in each rat are recorded. The compounds of the present invention are considered active if there is complete absence of implantations in the uterus of all rats, in comparison to presence of normal implantations in the uterus of rats of vehicle control group.

Assay [1] deals with immature ovariectomized rats. Kind of assay: Estrogen agonistic activity (uterine weight and uterine morphometry). As to conditions: 0.05 mg/kg daily. In kind it is in vivo, rat. As for the experimental part: Twenty-one-day-old immature female rats are bilaterally ovariectomized under light ether anaesthesia and, after post-operative rest for 7 days, are randomized into different treatment groups. Each rat receives the compound of the invention once daily for 3 consecutive days on days 28-30 of age. A separate group of animals receiving only the vehicle for similar duration serves as control. At autopsy 24 h after the last treatment on day 31 of age, vaginal smear of each rat is taken and uterus is carefully excised, gently blotted, weighed and fixed for histology and histomorphometry using image analysis. Premature opening of vagina, cornification of vaginal epithelium, increase in uterine fresh weight, total uterine and endometrial area and uterine luminal epithelial cell height are taken as parameters for evaluation of estrogen agonistic activity in comparison to rats of vehicle control group.
For image analysis in estrogen agonistic activity evaluation studies, paraffin sections (6 μm thick) of the uterus stained with haematoxylin and eosin were analysed microscopically. To determine changes in uterine tissue components, areas of whole uterus and endometrium and the thickness of uterine epithelium were measured using a computer-image analysis system (BioVis, Expert Vision, India). Briefly, microscopic images of uterus acquired through a CCD camera were loaded in to the image analysis program and spatially calibrated against a stage micrometer image taken at the same magnification. Using thresholding and line tools, the regions for measurements were selected and the area (mm^2) of whole uterine transection excluding the luminal space, the area (mm^2) of the endometrium only, and the thickness (μm) of luminal epithelial lining were measured. Luminal epithelial thickness data was the Average of measurements made at 6 randomly selected sites are taken as parameters for evaluation.

Assay [2] deals with immature ovariectomized rats. Briefly: Estrogen antagonistic activity (EE induced uterine weight gain). The format is in vivo, rat. As to conditions: 0.05 mg/kg daily with 0.02 mg/kg 17-alfa-ethynylestradiol, 3 days. The protocol: Twenty-one-day-old immature female rats are bilaterally ovariectomized under light ether anaesthesia and after post-operative rest for 7 days, are randomized into different treatment groups. Each rat receives the compounds of the invention and 0.02 mg/kg dose of 17-alfa-ethynylestradiol in 10% ethanol-distilled water once daily for 3 consecutive days on days 28-30 of age. A separate group of animals-receiving only 17-alfa-ethynylestradiol (0.02 mg/kg) in 10% ethanol-distilled water for similar duration are used for comparison. At autopsy on day 31 of age, vaginal smear of each rat is taken and uterus is carefully excised, gently blotted, weighed and fixed for histology and histomorphometry using image analysis. Inhibition in 17-alfa-ethynylestradiol-induced premature opening of vagina, cornification of vaginal epithelium, increase in uterine fresh weight, total uterine and endometrial area and uterine luminal epithelial cell height are taken as parameters for evaluation of estrogen antagonistic activity.

The next assay deals with T1, estrogen receptors (Rattus norvegicus, UniProt P06211).
T1 construct: Aliquot of uterine cytosol (200 μl; 2 uteri per ml) prepared in TEA buffer; from tissue; host or cells: uterine cytosol of immature estradiol-primed 20-21 day old rats
T1 sequence (P06211 1-600): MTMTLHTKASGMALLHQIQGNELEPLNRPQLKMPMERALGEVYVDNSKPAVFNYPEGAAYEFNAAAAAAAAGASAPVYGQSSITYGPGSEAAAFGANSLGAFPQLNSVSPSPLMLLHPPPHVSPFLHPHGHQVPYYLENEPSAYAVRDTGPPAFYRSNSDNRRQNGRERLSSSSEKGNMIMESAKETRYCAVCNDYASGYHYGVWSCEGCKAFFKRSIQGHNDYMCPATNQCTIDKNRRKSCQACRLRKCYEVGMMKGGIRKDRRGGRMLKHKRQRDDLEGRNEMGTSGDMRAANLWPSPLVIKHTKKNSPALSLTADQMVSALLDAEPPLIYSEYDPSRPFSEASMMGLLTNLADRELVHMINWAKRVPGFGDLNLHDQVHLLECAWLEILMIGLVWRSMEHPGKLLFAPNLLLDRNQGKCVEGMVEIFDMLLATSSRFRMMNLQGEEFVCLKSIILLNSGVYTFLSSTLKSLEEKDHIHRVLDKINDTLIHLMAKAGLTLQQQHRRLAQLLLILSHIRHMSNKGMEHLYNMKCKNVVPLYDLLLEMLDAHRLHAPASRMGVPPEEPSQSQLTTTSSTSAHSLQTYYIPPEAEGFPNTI
Briefly: Relative binding affinity (RBA) to estrogen receptors, 3H-estradiol competition assay. As to conditions: rat uterine cytosol, 3H-E2, 18 hrs at 4° C.; relative to 17-beta-estradiol = 100.

`COc1ccc2c(c1)OC(C)(C)[C@@H](c1ccccc1)[C@@H]2c1ccc(OC[C@@H](O)CN2CCCC2)cc1` (relative stereo) [Example number 8]: the “% Efficacy” value in the assay on adult female rats (0.05 mg/kg daily, days 1-5 post-coitum) stood at 100%; in the assay with adult female rats (0.1 mg/kg daily, days 1-5 post-coitum) it was 100%; in the assay with adult female rats (0.5 mg/kg, day 1 post-coitum) it was 100%; with adult female rats (1 mg/kg, day 1 post-coitum) it was 100%. For the same compound, the “Endometrium Epithelial cell height” value in assay [1] is on record as 17.25 μm. Besides, the “Endometrium Total area” value in assay [1] came out at 0.35 mm^2. For the same compound, in assay [1], the “Uterus Total area” value was determined as 0.67 mm^2. Besides, the “Percent increase in uterine weight (percent of OVX + vehicle treatment group)” value in assay [1] (3 days) worked out at 53%. Moreover, in assay [2], the “Percent inhibition in EE induced uterine weight gain” value turned out to be 49%. Also, on estrogen receptors, the RBA amounted to 6.6.
